Values quoted from earlier work as cited in patent US7935348B2, “Combination therapy for the treatment of Alzheimer's disease” (Affiris Forschungs-und Entwicklungs GmbH, priority 2004, dated 2011).
“Also recorded” adds a separate entry of the source.

Key:
Aβ = settings: for Aβ amount in the brain: peripheral treatment
Chain of Aβ (P05067 672-711 limits assumed): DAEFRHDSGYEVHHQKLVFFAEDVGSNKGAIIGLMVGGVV

Substance | Aβ amount in the brain (Aβ) | AD-type neuropathologies (PDAPP transgenic mouse; immunization of young animals, before onset (6 weeks)) | AD-like neuropathologies (PDAPP transgenic mouse; treatment of older animals (11 months)) | Aβ content in the plasma (Aβ; peripheral administration)
GM1 | reduction of the Aβ amount in the brain |  |  | 
aggregated Aβ42: aggregated 42-amino acid form of amyloid-β peptide used as a "normal", not mimotope-based vaccine |  | prevented the development of plaque formation, neuritic dystrophy and astrogliosis | markedly reduced AD-like neuropathologies | 
gelsolin | reduction of the Aβ amount in the brain |  |  | not reduced; also recorded: increased Aβ content in the plasma
